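Results reflect a 48-hour exposure of cells in 96-well plates to compound at five concentrations. At the GI50, growth is halved. TGI denotes the concentration required for complete inhibition of growth.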
Experiments:
Test in all cases: NCI tumour cell line growth inhibition, 48 h
[1] = test system: HCT-116 colon
[2] = test system: SF-295 CNS
[3] = test system: SK-MEL-28 melanoma
[4] = test system: NCI-H460 lung
[5] = test system: HL-60(TB) leukemia
[6] = test system: ACHN renal
[7] = test system: SK-OV-3 ovarian
[8] = test system: COLO 205 colon
[9] = test system: A498 renal
[10] = test system: CAKI-1 renal
[11] = test system: MOLT-4 leukemia
[12] = test system: HS 578T breast
[13] = test system: OVCAR-5 ovarian
[14] = test system: A549 NSCLC
[15] = test system: SR leukemia
[16] = test system: M14 melanoma
[17] = test system: NCI/ADR-RES ovarian
[18] = test system: MALME-3M melanoma
[19] = test system: MDA-MB-435
[20] = test system: CCRF-CEM leukemia
[21] = test system: MDA-MB-231 breast
[22] = test system: NCI-H522 lung
[23] = test system: SN12C renal
[24] = test system: IGROV1 ovarian
[25] = test system: BT-549 breast
[26] = test system: 786-0 renal
[27] = test system: SNB-75 CNS
[28] = test system: DU-145 prostate
[29] = test system: K-562 leukemia
[30] = test system: HCT-15 colon
[31] = test system: RXF 393 renal
[32] = test system: HCC-2998 colon
[33] = test system: MCF7 breast
[34] = test system: UACC-62 melanoma
[35] = test system: T-47D breast
[36] = test system: SNB-19 CNS
[37] = test system: UACC-257 melanoma
[38] = test system: SW-620 colon
[39] = test system: SF-539 CNS
[40] = test system: TK-10 renal
[41] = test system: HOP-92 NSCLC
[42] = test system: U251 CNS
[43] = test system: OVCAR-4 ovarian
[44] = test system: NCI-H226 lung
[45] = test system: LOX IMVI melanoma
[46] = test system: HOP-62 NSCLC
[47] = test system: SF-268 CNS
[48] = test system: SK-MEL-5 melanoma
[49] = test system: EKVX NSCLC
[50] = test system: PC-3 prostate
[51] = test system: UO-31 renal
[52] = test system: OVCAR-8 ovarian
[53] = test system: KM12 colon
[54] = test system: SK-MEL-2 melanoma
[55] = test system: HT29 colon
[56] = test system: RPMI-8226 leukemia

`CCNC(=O)Oc1ccc(/C(=C(/C)c2ccc(Cl)cc2)c2ccc(OCCN3CCCCCC3)cc2)cc1` was tested, and the GI50 [1] was 1.62 µM, the TGI [1] was 3 µM and the GI50 [2] was 1.6 µM. It also gave a TGI [2] of 2.97 µM, a GI50 [3] of 1.74 µM and a TGI [3] of 3.18 µM. For the same molecule, the GI50 [4] was 1.75 µM, the TGI [4] was 3.24 µM and the GI50 [5] was 1.82 µM. The TGI [5] was 4.45 µM, the GI50 [6] was 1.75 µM and the TGI [6] was 3.2 µM. For the same molecule, the GI50 [7] was 1.87 µM, the TGI [7] was 3.7 µM and the GI50 [8] was 1.74 µM. It also gave a TGI [8] of 3.18 µM, a GI50 [9] of 1.75 µM and a TGI [9] of 3.78 µM. The GI50 [10] was 1.64 µM, the TGI [10] was 3.09 µM and the GI50 [11] was 2.1 µM. It also gave a TGI [11] of 6.06 µM, a GI50 [12] of 1.95 µM and a TGI [12] of 4.26 µM. For the same molecule, the GI50 [13] was 1.99 µM, the TGI [13] was 4.38 µM and the GI50 [14] was 1.7 µM. For the same molecule, the TGI [14] was 3.27 µM, the GI50 [15] was 1.35 µM and the TGI [15] was 4.91 µM. It also gave a GI50 [16] of 1.7 µM, a TGI [16] of 3.13 µM and a GI50 [17] of 1.84 µM. It also gave a TGI [17] of 3.75 µM, a GI50 [18] of 1.78 µM and a TGI [18] of 3.42 µM. It also gave a GI50 [19] of 1.77 µM, a TGI [19] of 3.24 µM and a GI50 [20] of 1.64 µM. For the same molecule, the TGI [20] was 9.81 µM, the GI50 [21] was 1.84 µM and the TGI [21] was 3.48 µM. The GI50 [22] was 1.78 µM, the TGI [22] was 3.46 µM and the GI50 [23] was 1.67 µM. It also gave a TGI [23] of 3.18 µM, a GI50 [24] of 1.8 µM and a TGI [24] of 3.41 µM. For the same molecule, the GI50 [25] was 1.74 µM, the TGI [25] was 3.14 µM and the GI50 [26] was 1.61 µM. For the same molecule, the TGI [26] was 3.02 µM, the GI50 [27] was 1.99 µM and the TGI [27] was 4.02 µM. The GI50 [28] was 2.29 µM, the TGI [28] was 5.37 µM and the GI50 [29] was 1.39 µM. The TGI [29] was 3.95 µM, the GI50 [30] was 1.5 µM and the TGI [30] was 2.91 µM. The GI50 [31] was 1.46 µM, the TGI [31] was 2.93 µM and the GI50 [32] was 1.72 µM. It also gave a TGI [32] of 3.16 µM, a GI50 [33] of 0.404 µM and a TGI [33] of 2.32 µM. The GI50 [34] was 1.79 µM, the TGI [34] was 3.28 µM and the GI50 [35] was 1.39 µM. It also gave a TGI [35] of 4.19 µM, a GI50 [36] of 2.5 µM and a TGI [36] of 6.88 µM. The GI50 [37] was 1.71 µM, the TGI [37] was 3.3 µM and the GI50 [38] was 1.71 µM. It also gave a TGI [38] of 3.22 µM, a GI50 [39] of 1.72 µM and a TGI [39] of 3.14 µM. For the same molecule, the GI50 [40] was 2.27 µM, the TGI [40] was 6.75 µM and the GI50 [41] was 1.41 µM. It also gave a TGI [41] of 2.86 µM, a GI50 [42] of 1.49 µM and a TGI [42] of 2.86 µM. It also gave a GI50 [43] of 1.96 µM, a TGI [43] of 4.55 µM and a GI50 [44] of 2.61 µM. The TGI [44] was 8.2 µM, the GI50 [45] was 1.69 µM and the TGI [45] was 3.12 µM. For the same molecule, the GI50 [46] was 1.55 µM, the TGI [46] was 3 µM and the GI50 [47] was 2.2 µM. The TGI [47] was 5.54 µM, the GI50 [48] was 1.68 µM and the TGI [48] was 3.05 µM. The GI50 [49] was 1.91 µM, the TGI [49] was 4.77 µM and the GI50 [50] was 1.78 µM. The TGI [50] was 3.53 µM, the GI50 [51] was 1.44 µM and the TGI [51] was 2.79 µM. For the same molecule, the GI50 [52] was 1.78 µM, the TGI [52] was 3.4 µM and the GI50 [53] was 2.63 µM. The TGI [53] was 6.8 µM, the GI50 [54] was 1.77 µM and the TGI [54] was 3.33 µM. For the same molecule, the GI50 [55] was 1.7 µM, the TGI [55] was 3.27 µM and the GI50 [56] was 1.8 µM. For the same molecule, the TGI [56] was 3.93 µM.

Source: PubChem BioAssay (NCI)
